Among the data in BindingDB's records for PubMed 6655559 (University of California, 1983) are Ki values, retold here.

The target in test [1] is D(2) dopamine receptor (Rattus norvegicus, UniProt P61169).
Test [2] has as its target D(2) dopamine receptor (Oryctolagus cuniculus, UniProt G1T1Q0).

“And” between values parts separate entries of the source, which are not always exact repeats. Equal entries are not always repeated.

Chain of D(2) dopamine receptor (Oryctolagus cuniculus, UniProt G1T1Q0) (G1T1Q0 whole entry): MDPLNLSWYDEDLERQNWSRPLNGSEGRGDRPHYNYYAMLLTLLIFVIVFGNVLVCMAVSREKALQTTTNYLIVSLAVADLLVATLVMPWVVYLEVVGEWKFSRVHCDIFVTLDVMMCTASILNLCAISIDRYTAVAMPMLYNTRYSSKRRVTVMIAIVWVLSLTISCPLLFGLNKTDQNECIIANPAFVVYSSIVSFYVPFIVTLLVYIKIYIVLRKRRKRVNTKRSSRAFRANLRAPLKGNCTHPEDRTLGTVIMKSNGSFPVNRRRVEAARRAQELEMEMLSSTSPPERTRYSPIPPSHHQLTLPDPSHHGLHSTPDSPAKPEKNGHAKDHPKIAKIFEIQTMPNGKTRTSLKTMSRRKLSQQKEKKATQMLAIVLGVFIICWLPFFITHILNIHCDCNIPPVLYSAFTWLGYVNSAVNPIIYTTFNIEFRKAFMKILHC
Chain of D(2) dopamine receptor (Rattus norvegicus, UniProt P61169) (P61169 whole entry): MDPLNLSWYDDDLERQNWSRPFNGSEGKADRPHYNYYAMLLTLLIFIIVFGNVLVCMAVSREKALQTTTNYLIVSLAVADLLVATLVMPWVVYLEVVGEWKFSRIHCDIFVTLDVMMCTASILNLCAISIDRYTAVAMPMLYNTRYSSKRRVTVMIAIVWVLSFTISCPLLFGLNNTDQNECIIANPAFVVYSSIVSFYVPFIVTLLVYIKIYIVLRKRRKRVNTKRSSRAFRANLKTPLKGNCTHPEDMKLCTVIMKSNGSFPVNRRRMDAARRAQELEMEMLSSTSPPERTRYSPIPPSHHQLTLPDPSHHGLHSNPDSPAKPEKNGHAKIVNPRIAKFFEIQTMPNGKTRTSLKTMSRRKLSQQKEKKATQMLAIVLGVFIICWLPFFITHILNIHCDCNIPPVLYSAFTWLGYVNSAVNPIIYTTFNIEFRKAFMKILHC

A word on the Ki: it is the dissociation constant of the complex between target and ligand, obtained from inhibition or displacement. Lower therefore signals higher affinity. On to `Cc1ccc(N(CC2=NCCN2)c2cccc(O)c2)cc1` [SMR000059054], for which the Ki was 1500 nM and 750 nM at D(2) dopamine receptor [1]; 1200 nM at D(2) dopamine receptor [2].

As to `O=C(c1ccc(F)cc1)C1CCN(CCn2c(=O)[nH]c3ccccc3c2=O)CC1` [3-(2-{4-[(4-fluorophenyl)carbonyl]piperidin-1-yl}ethyl)-1,2,3,4-tetrahydroquinazoline-2,4-dione], the Ki was 720 nM and 580 nM at D(2) dopamine receptor [1]; 880 nM on D(2) dopamine receptor [2].

Take `CCCN(CCC)CCc1ccc(O)c(O)c1`: the Ki was 130 nM on D(2) dopamine receptor [1]; 37 nM and 85 nM on D(2) dopamine receptor [2].

As to `O=c1[nH]c2ccccc2n1CCCN1CCC(n2c(=O)[nH]c3cc(Cl)ccc32)CC1`, at D(2) dopamine receptor [2], the Ki was 3.3 nM and 4.9 nM.

`Nc1nc2c(ncn2[C@@H]2O[C@H](COP(=O)(O)OP(=O)(O)OP(=O)(O)O)[C@@H](O)[C@H]2O)c(=O)[nH]1` [Dopamine+ (GTP+)]: the Ki at D(2) dopamine receptor [1] is 1300 nM and 2900 nM.

Take `NCCc1ccc(O)c(O)c1`: the inhibition constant (Ki) on D(2) dopamine receptor [2] is 250 nM and 200 nM.
